Experimental data published in patent US20230295145A1, “PYRROLIDINE DERIVATIVES AND METHODS OF USE” (Genentech, Inc., priority 2020, published 2023).
pIC50: −log10 of the molar value. Like-named read-outs stand apart in the source and are kept apart here.

How the values were obtained:
VHL [1] = target: T1, VHL (Homo sapiens, UniProt P40337); assay: VHL HEK-293 BRET Assay (VHL NanoBRET Target Engagement Assay); type: cell-based; conditions: HEK 293 RT VHL-NanoLuc stable cells; read-out: IC50
T1 construct: expressed in transfected cells
Protocol: The VHL NanoBRET™ Target Engagement Assay analyzes the apparent affinity of test compounds for VHL in cells by competitive displacement of a VHL NanoBRET™ tracer reversibly bound to a NanoLuc® VHL fusion protein stably expressed in the cells.
Test compounds were transferred to the assay plate (384 Well White Non-Binding Corning Assay Plates (Corning-3574)) using an Echo 555 Liquid Handler (Labcyte) in 2.5 nL increments and, as appropriate, intermediate stock concentrations of compounds, in order to prepare a titration series. 50 nL of control compound (10 mM; parental unlabeled VHL antagonist; see structure below) and 50 nL of DMSO (negative control) were dispensed into the appropriate control wells. DMSO was backfilled to a final volume of 50 nL as required. 50 nl per well of 1 mM VHL NanoBRET™ Tracer in DMSO (NanoBRET™ Tracer-PEG2-590 (see structure below)) was transferred into each well using an Echo 555 (ultimately yielding a final concentration of 1 uM). HEK 293 RT VHL-NanoLuc® stable cells were cultured in DMEM High Glucose with Pyruvate, 10% fetal bovine serum, 2 mg/mL of Geneticin Selective Antibiotic (50 mg/mL) and 2 mM HEPES (1 M). Cells were seeded in Opti-MEM (Life Technologies-11058-021), 1.7×10^5 cells/mL, 40 μl per well into the assay plate, centrifuged at 500 rpm for 30 seconds and incubated for 2 hours. Max Signal control wells consisted of DMSO only treated wells. Minimum Signal control wells contained of 10 uM parental unlabeled VHL antagonist (control compound—see structure below). 3× Complete Substrate plus Inhibitor Solution was prepared in Opti-MEM (consists of a 1:166 dilution of NanoBRET™ Nano-Glo® Substrate plus a 1:500 dilution of Extracellular NanoLuc® Inhibitor in Opti-MEM), and 20 ul was dispensed into each well of the 384-well plate and centrifuged at 1000 rpm for 1 minute, then incubated for 2 minutes at room temperature. Background Signal control wells were prepared without tracer for background correction steps.
Plates were read using a PerkinElmer Envision Reader (model 2104-0020) equipped with Luminescence option (Mirror: BRET2 Enh (PE Barcode 659), Emission Filter: Omega 610LP (Barcode 504), 2nd Emission Filter: Umbelliferone 460 (Barcode 207), Measurement height: 6.5 mm, Measurement time: 1 s). The raw BRET ratio values were calculated by dividing the acceptor emission value (610 nm) by the donor emission value (460 nm) for each sample. To correct for background, the BRET ratio in the absence of tracer (average of no-tracer control samples) was subtracted from the BRET ratio of each sample. Raw BRET units were converted to milliBRET units (mBU) by multiplying each raw BRET value by 1,000. The normalized NanoBRET™ signal was calculated relative to the Max Signal control wells (DMSO treated control wells) and the Minimum Signal control wells. Percentage inhibition was calculated relative to the Minimum Signal control and Maximum Signal control wells. IC50 values were derived by four parameter curve fitting using the Robust method.

HCC366 = assay: Cell Viability Assay (CellTiter-Glo); type: cell-based; conditions: 10 μM, 5 days
Protocol: (§1) Cell lines were cultured in RPMI-1640, 5% fetal bovine serum, and 2 mM glutamine in a humidified incubator maintained at 37° C. with 5% CO2. Cells were assessed with a Vi-CELL Cell Viability Analyzer (Beckman Coulter; Brea, CA); viability of at least 90% was required for screening. A Multidropä Combi Reagent Dispenser (Thermo Scientific; Waltham, MA) was used to plate cells into Falcons^â 384-well, black, clear-bottom plates (Catalog No. 353962; Corning; Tewksbury, MA) using seeding densities previous determined to achieve approximately 80% confluence at the final time point of the assay. The compounds were prepared at 1000× in advance using an Echo 555 liquid handler (Labcyte; Sunnyvale, CA) and stored in −80° C. until the day of compound addition. On the following day, cells were treated with compounds at final assay concentration 1 uM and 10 uM using a Bravo Automated Liquid-Handling Platform (Agilent; Santa Clara, CA). After 5 days, 25 mL CellTiter-Glo^â reagent was added using a MultiFloä Microplate Dispenser (BioTek; Winooski, VT). Cell lysis was induced by mixing for 30 minutes on an orbital shaker; plates were then incubated at room temperature for 10 minutes to stabilize the luminescent signal. Luminescence was read by a 2104 EnVision^â Multilabel Plate Reader (PerkinElmer; Waltham, MA).
(§2) The data was processed using Genedata Screener^â, Version 15 (Genedata; Basel, Switzerland) to assess compound effects on viability. Compound treated wells were normalized to the median value of 14 DMSO control wells on the same 384 well plate.

VHL [2] = target: T1, VHL; assay: VHL HEK-293 BRET Assay (VHL NanoBRET Target Engagement Assay); type: cell-based; conditions: IC50 values measured in the presence of digitonin; HEK 293 RT VHL-NanoLuc stable cells; read-out: IC50 + Digi (μM)*
CAL-120 = assay: Cell Viability Assay (CellTiter-Glo); conditions: 1 μM, 5 days
Protocol: as §1, §2

NCI-H2030 = assay: Cell Viability Assay (CellTiter-Glo); type: cell-based; conditions: 5 days
Protocol: as §1, §2

PANC-1 = assay: Cell Viability Assay (CellTiter-Glo); type: cell-based; conditions: 10 μM, 5 days
Protocol: as §1, §2

T1 sequence (P40337 whole entry): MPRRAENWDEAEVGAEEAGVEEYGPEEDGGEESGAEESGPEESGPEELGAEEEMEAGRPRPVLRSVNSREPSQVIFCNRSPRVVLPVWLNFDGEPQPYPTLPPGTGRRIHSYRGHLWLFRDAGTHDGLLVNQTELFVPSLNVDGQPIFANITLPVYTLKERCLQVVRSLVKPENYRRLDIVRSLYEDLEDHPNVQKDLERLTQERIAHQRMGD

| SMILES | pIC50 (VHL [1]) | Normalized viability % DMSO (HCC366) | IC50 (VHL [2]) | Normalized viability % DMSO (CAL-120) | Normalized viability % DMSO (NCI-H2030; 10 μM) | Normalized viability % DMSO (PANC-1) | Normalized viability % DMSO (NCI-H2030; 1 μM) |
| --- | --- | --- | --- | --- | --- | --- | --- |
| CC(C)(NC(=O)[C@@H]1C[C@@H](O)CN1C(=O)[C@@H](n1cc(C2CC2)nn1)C(C)(C)C)c1cccc(C#N)c1 [Compound 561, (2S,4R)-N-[1-(3-cyanophenyl)-1-methyl-ethyl]-1-[(2S)-2-(4-cyclopropyltriazol-1-yl)-3,3-dimethyl-butanoyl]-4-hydroxy-pyrrolidine-2-carboxamide] | 6.03 | 12.5 % DMSO | 1.64 µM |  |  |  |  |
| Cc1ccc(N2CCC[C@H]2CNC(=O)[C@@H]2C[C@@H](O)CN2C(=O)[C@@H](n2cc(C3CC3)nn2)C(C)(C)C)cc1 [Compound 462, (2S,4R)-1-[(2S)-2-(4-cyclopropyltriazol-1-yl)-3,3-dimethyl-butanoyl]-4-hydroxy-N-[[(2S)-1-(p-tolyl)pyrrolidin-2-yl]methyl]pyrrolidine-2-carboxamide] | 5.55 | 11.3 % DMSO | 5.35 µM |  |  |  |  |
| CC(C)(C)[C@@H](C(=O)N1C[C@H](O)C[C@H]1C(=O)NC1CN(c2ccncc2)C1)n1cc(C2CC2)nn1 [Compound 445, (2S,4R)-1-[(2S)-2-(4-cyclopropyltriazol-1-yl)-3,3-dimethyl-butanoyl]-4-hydroxy-N-[1-(4-pyridyl)azetidin-3-yl]pyrrolidine-2-carboxamide] | 4.57 | 5.2 % DMSO | 22.3 µM |  |  |  |  |
| CNC(=O)[C@@H]1C[C@@H](O)CN1C(=O)[C@@H](n1cc(CN(C)c2ccccc2)nn1)C(C)(C)C [Compound 842, (2S,4R)-1-[(2S)-3,3-dimethyl-2-[4-[(N-methylanilino)methyl]triazol-1-yl]butanoyl]-4-hydroxy-N-methyl-pyrrolidine-2-carboxamide] |  |  |  | 18.5 % DMSO |  |  |  |
| CC(C)(C)[C@@H](C(=O)N1C[C@H](O)C[C@H]1C(=O)N[C@H]1CC[C@H](c2nc3ccccc3o2)CC1)n1cc(C2CC2)nn1 [Compound 106, (2S,4R)-N-[4-(1,3-benzoxazol-2-yl)cyclohexyl]-1-[(2S)-2-(4-cyclopropyltriazol-1-yl)-3,3-dimethyl-butanoyl]-4-hydroxy-pyrrolidine-2-carboxamide] | 5.47 | 6.0 % DMSO | 4.41 µM |  |  |  |  |
| CC(Cc1ccc(Br)cc1F)NC(=O)[C@@H]1C[C@@H](O)CN1C(=O)[C@@H](n1cc(C2CC2)nn1)C(C)(C)C (stereo partly drawn) [Compound 556, (2S,4R)-N-[2-(4-bromo-2-fluoro-phenyl)-1-methyl-ethyl]-1-[(2S)-2-(4-cyclopropyltriazol-1-yl)-3,3-dimethyl-butanoyl]-4-hydroxy-pyrrolidine-2-carboxamide] | 6.26 |  | 2.52 µM |  | 50.4 % DMSO |  |  |
| CC(C)(C)[C@@H](C(=O)N1C[C@H](O)C[C@H]1C(=O)NC1CCN(c2ccc(Cl)c(Cl)c2)C1)n1cc(C2CC2)nn1 (stereo partly drawn) [Compound 463, (2S,4R)-1-[(2S)-2-(4-cyclopropyltriazol-1-yl)-3,3-dimethyl-butanoyl]-N-[1-(3,4-dichlorophenyl)pyrrolidin-3-yl]-4-hydroxy-pyrrolidine-2-carboxamide] | 5.43 |  | 4.86 µM |  |  | 35.6 % DMSO |  |
| CNC(=O)[C@@H]1C[C@@H](O)CN1C(=O)[C@@H](n1cc(-c2cccc(C(F)(F)F)c2)nn1)C(C)(C)C [Compound 974, (2S,4R)-1-[(2S)-3,3-dimethyl-2-[4-[3-(trifluoromethyl)phenyl]triazol-1-yl]butanoyl]-4-hydroxy-N-methyl-pyrrolidine-2-carboxamide] |  |  |  |  |  |  | 15.3 % DMSO |
| CCC(CNC(=O)[C@@H]1C[C@@H](O)CN1C(=O)[C@@H](n1cc(C2CC2)nn1)C(C)(C)C)Oc1cccc(C(F)(F)F)c1 (stereo partly drawn) [Compound 493, (2S,4R)-1-[(2S)-2-(4-cyclopropyltriazol-1-yl)-3,3-dimethyl-butanoyl]-4-hydroxy-N-[2-[3-(trifluoromethyl)phenoxy]butyl]pyrrolidine-2-carboxamide] | 5.43 |  | 5.56 µM |  |  | 51.8 % DMSO |  |
